Reference: patent publication US8822423B2 (Janssen Biotech, Inc., priority 2012, dated 2014)
Ends that are not written are not given here.

Test system: infliximab
Assay: Confirmatory phage ELISA, binding of phage-displayed peptides to infliximab
Settings: FIG. 3, N value of 2
Method: 96-well black ELISA plates were coated with streptavidin (Columns 1 through 4), mAb competitor (Columns 5 and 6), hIgG (Columns 7 and 8), human serum albumin (Columns 9 and 10) and collagen (Columns 11 and 12), at a concentration of 5 micrograms/mL in PBS. Plates were incubated overnight at 4° C. Plates were washed 3 times with TBST using a plate washer. To the streptavidin-coated wells in columns 3 and 4, 100 microliters of a 5 micrograms/mL solution of biotinylated-infliximab was introduced and allowed to sit at room temperature for 30 minutes. To all other wells, 100 microliters of PBS was introduced. The plates were again washed 3 times with TBST using the plate washer. The wells were then blocked with 250 microliters of a 3% dehydrated milk suspension in TBST and allowed to sit at room temperature for a minimum of 1 hour. Using phage concentrations determined by the phage titrations, dilutions of the phage stock solutions were performed in a separate 96-well plate to result in phage concentrations of 10^10, 10^9, 10^8, 10^7, 10^6 and 10^5 phage/well. After blocking, the ELISA plate was washed 3 times with TBST and 100 microliters of the phage dilutions were introduced to the respective ELISA plates and allowed to sit at room temperature for a minimum of 1 hour. The ELISA plate was again washed 3 times with TBST using the plate washer and 100 microliters of an horseradish peroxidase (HRP)-conjugated Anti-M13 Phage Mab (1:5000 dilution in PBS) was introduced to each well. The plates were allowed to sit at room temperature for 1 hour after which time the plates were washed 3 times with TBST. Next, a peroxidase-based (POD) HRP-substrate was introduced to each well. The luminescence was read using a luminometer set with a gain of 150.
With “SEQ ID NO: 19: infliximab affinity peptide of FIG. 1, identified by pIX phage display (AGPPYTVFVHL)” the “binding to infliximab (phage ELISA, relative luminescence)” value was “confirms the binding”.
For “SEQ ID NO: 5: infliximab affinity peptide of FIG. 1, identified by pIX phage display (AGNRCAYAAGTIQCFP)”, the “binding to infliximab (phage ELISA, relative luminescence)” value was “confirms the binding”.
For “SEQ ID NO: 9: infliximab affinity peptide of FIG. 1, identified by pIX phage display (AGVACHSTGTNIYTCTY)”, the “binding to infliximab (phage ELISA, relative luminescence)” value was “confirms the binding”.
In the case of “SEQ ID NO: 6: infliximab affinity peptide of FIG. 1, identified by pIX phage display (AGEICYWHDTDWVCTE)”, the “binding to infliximab (phage ELISA, relative luminescence)” value was “confirms the binding”.
With “SEQ ID NO: 8: infliximab affinity peptide of FIG. 1, identified by pIX phage display (AGNYCHPDQLSQFCAR)” the “binding to infliximab (phage ELISA, relative luminescence)” value was “confirms the binding”.
For “SEQ ID NO: 3: infliximab affinity peptide of FIG. 1; also chemically synthesized, biotinylated (AGTYCHPDQLRNLCPV; cysteine pairing not given here; also: biotinylated, position not given here)”, the “binding to infliximab (phage ELISA, relative luminescence)” value was “confirms the binding”.
For “SEQ ID NO: 4: infliximab affinity peptide of FIG. 1, identified by pIX phage display (AGVTCRMTEYGPMCPT)”, the “binding to infliximab (phage ELISA, relative luminescence)” value was “confirms the binding”.
For “SEQ ID NO: 14: infliximab affinity peptide of FIG. 1, identified by pIX phage display (AGARCAPAFDANWLICSN)”, the “binding to infliximab (phage ELISA, relative luminescence)” value was “confirms the binding”.
For “SEQ ID NO: 13: infliximab affinity peptide of FIG. 1; also chemically synthesized, biotinylated (AGPPCIVTQLSDLSFCAP; cysteine pairing not given here; also: biotinylated, position not given here)”, the “binding to infliximab (phage ELISA, relative luminescence)” value was “confirms the binding”.
With “SEQ ID NO: 12: infliximab affinity peptide of FIG. 1, identified by pIX phage display (AGIQCHDVGAGVVTCTY)” the “binding to infliximab (phage ELISA, relative luminescence)” value was “confirms the binding”.
With “SEQ ID NO: 1: infliximab affinity peptide of FIG. 1, identified by pIX phage display (AGWTVAYVPPGPSYATS)” the “binding to infliximab (phage ELISA, relative luminescence)” value was “confirms the binding”.
In the case of “SEQ ID NO: 17: infliximab affinity peptide of FIG. 1, identified by pIX phage display (AGLLCAPSLDPDYILCDQ)”, the “binding to infliximab (phage ELISA, relative luminescence)” value was “confirms the binding”.
In the case of “SEQ ID NO: 20: infliximab affinity peptide of FIG. 1, identified by pIX phage display (AGYCISDYIDPCH)”, the “binding to infliximab (phage ELISA, relative luminescence)” value was “confirms the binding”.
For “SEQ ID NO: 22: infliximab affinity peptide of FIG. 1, identified by pIX phage display (AGLCPELPHC)”, the “binding to infliximab (phage ELISA, relative luminescence)” value was “confirms the binding”.
With “SEQ ID NO: 23: infliximab affinity peptide of FIG. 1, identified by pIX phage display (AGPCPELPHCTY)” the “binding to infliximab (phage ELISA, relative luminescence)” value was “confirms the binding”.
For “SEQ ID NO: 15: infliximab affinity peptide of FIG. 1, identified by pIX phage display (AGPPCAAAMAQAQLACTH)”, the “binding to infliximab (phage ELISA, relative luminescence)” value was “confirms the binding”.
With “SEQ ID NO: 18: infliximab affinity peptide of FIG. 1; wild type for site-directed mutagenesis (AG-XXXX-PWPPTAES-XXXX mutants) (AGLLCEPWPPTAESICRS)” the “binding to infliximab (phage ELISA, relative luminescence)” value was “confirms the binding”.
For “SEQ ID NO: 21: infliximab affinity peptide of FIG. 1, identified by pIX phage display (AGPCISDYFDPCH)”, the “binding to infliximab (phage ELISA, relative luminescence)” value was “confirms the binding”.
In the case of “SEQ ID NO: 7: infliximab affinity peptide of FIG. 1, identified by pIX phage display (AGTHCSYVLGRIECLP)”, the “binding to infliximab (phage ELISA, relative luminescence)” value was “confirms the binding”.
In the case of “SEQ ID NO: 16: infliximab affinity peptide of FIG. 1, identified by pIX phage display (AGVVCATPEWTWDPACAT)”, the “binding to infliximab (phage ELISA, relative luminescence)” value was “confirms the binding”.
With “SEQ ID NO: 11: infliximab affinity peptide of FIG. 1, identified by pIX phage display (AGSLCHTVGSGIYNCTK)” the “binding to infliximab (phage ELISA, relative luminescence)” value was “confirms the binding”.

Test system: infliximab
Assay: Infliximab affinity peptide ELISA, concentration dependent binding
Settings: biotinylated synthesized peptides, 0.0028-500 micromolar, FIG. 5
Method: 96-well black ELISA plates were coated with goat anti-human Fc (Jackson Immunoresearch Laboratories, Inc., West Grove, Pa., cat. #109-006-098) at a concentration of 5 micrograms/mL in PBS. Plates were incubated overnight at 4° C. Plates were washed 3 times with TBST using a plate washer. […] To all other wells, 100 microliters of PBS was introduced. The plates were again washed 3 times with TBST using the plate washer. The wells were then blocked with 250 microliters of a 3% dehydrated milk suspension in TBST and allowed to sit at room temperature for a minimum of 1 hour. Biotinylated, chemically synthesized peptides having SEQ ID NO: 2, SEQ ID NO: 3, SEQ ID NO: 10, and SEQ ID NO: 13 were prepared using standard, automated Fluorenylmethyloxycarbonyl (Fmoc) solid phase peptide synthesis procedures. Each peptide solution for the assay was prepared from a 500 micromolar stock solution. The stock solution was serially diluted in assay buffer resulting in peptide concentrations of 500, 166.6, 55.5, 18.5, 6.2, 2.1, 0.69, 0.23, 0.076, 0.025, 0.0085 and 0.0028 micromolar.
After blocking, the ELISA plate was washed 3 times with TBST and 100 microliters of the serially diluted peptides were added to the corresponding wells of the ELISA plate and allowed to sit at room temperature for a minimum of 1 hour. […] The luminescence was read using a luminometer set with a gain of 150.
With “SEQ ID NO: 3: infliximab affinity peptide of FIG. 1; also chemically synthesized, biotinylated (AGTYCHPDQLRNLCPV; cysteine pairing not given here; also: biotinylated, position not given here)” the “rank according to concentration-dependent binding to infliximab” value was “SEQ ID NO: 2>SEQ ID NO: 10>SEQ ID NO: 3>SEQ ID NO: 13”.
In the case of “SEQ ID NO: 13: infliximab affinity peptide of FIG. 1; also chemically synthesized, biotinylated (AGPPCIVTQLSDLSFCAP; cysteine pairing not given here; also: biotinylated, position not given here)”, the “rank according to concentration-dependent binding to infliximab” value was “SEQ ID NO: 2>SEQ ID NO: 10>SEQ ID NO: 3>SEQ ID NO: 13”.

Test system: WEHI-13VAR mouse fibroblasts
Assay: In vitro bioactivity of infliximab in the presence of affinity peptides, MTT cell viability with TNF-α
Assay type: cell-based
Settings: peptide 66 nanomolar, infliximab 0-66 nanomolar, overnight, FIG. 7
Method: In this experiment, we determined if the affinity peptides would interfere with the binding of tumor necrosis factor alpha (TNF-α) using WEHI-13VAR mouse fibroblasts.
WEHI-13VAR cells (mouse fibroblast cell line) were plated out in wells of a 96 well plate two hours prior to running the experiment at 50000 cells per well. […] After overnight incubation, cell viability was assessed using an MTT cell viability assay (R&D Systems, Inc., Minneapolis, Minn., cat #4890-050-K) following the product insert.
With “SEQ ID NO: 13: infliximab affinity peptide of FIG. 1; also chemically synthesized, biotinylated (AGPPCIVTQLSDLSFCAP; cysteine pairing not given here; also: biotinylated, position not given here)” the “effect on the viability of WEHI-13VAR mouse fibroblasts in the presence of infliximab” value was “minimal effect”.

Test system: not given
Assay: not given
Settings: given by IV infusion; cited from earlier work
In the case of “infliximab: chimeric IgG1κ monoclonal antibody that blocks the action of TNF-alpha”, the half-life is given as “approximately eight”.
